Results: patent US8765666B2, “Adenovirus dodecahedron particles for delivery of pharmaceutical agents” (Instytut Bio chemii i Biofizki PAN, priority 2009, dated 2014)
Structures can show the parent of a compound that is named as a salt.

Tested on: HeLa cells
Assay: MTT cytotoxicity test
Conditions: results not shown
Procedure: In the test, the ability of live cells to reduce the soluble yellow tetrazolium salt (MTT) to blue formazan crystals is used. […] After 3 hours, foetal bovine serum was added to a final concentration of 10%. After various incubation times at 37° C., the incubation medium was removed and 100 μL EMEM containing 0.5 mg/mL MTT (Sigma) was added. The plates were incubated according to the manufacturer's instructions; optical density measurements were carried out using an HTi reader (Biotek, VT Winooski, USA). The number of live cells was calculated according to the protocol (Mosmann, 1983).

Cc1c(N)nc(C(CC(N)=O)NCC(N)C(N)=O)nc1C(=O)NC(C(=O)NC(C)C(O)C(C)C(=O)NC(C(=O)NCCc1nc(-c2nc(C(=O)NCCCNCCCCN)cs2)cs1)C(C)O)C(OC1OC(CO)C(O)C(O)C1OC1OC(CO)C(O)C(OC(N)=O)C1O)c1c[nH]cn1 (stereo not shown) [BLM, Bleomycin A5 hydrochloride]
free BLM concentration giving cell mortality similar to Dd-BLM: 8 µM
